The source of these data is article PMC7221803, “Structure–Activity Relationships and Biological Evaluation of 7-Substituted Harmine Analogs for Human β-Cell Proliferation” (Molecules, 2020).

Values joined by “and” are separate entries in the source; they are usually repeats but may differ in a detail not shown here. Equal entries are not always repeated. Where two headings read alike, the source gives them in different places.

Assay [1] addresses DYRK1A (Homo sapiens, UniProt Q13627). Put plainly: FRET-based LanthaScreen Eu Kinase Binding Assay for DYRK1A. As to conditions: for IC50: 10 point LanthaScreen Eu Kinase Binding Assay; for inhibition at 0.3 µM: read-out: % DYRK1A Inhibition 300 nM; for inhibition at 1 µM: read-out: % DYRK1A Inhibition 1000 nM; for fold less potent DYRK1A inhibition as compared to harmine: relative to harmine (27 nM); for DYRK1A inhibition (result in words): in vitro at the concentrations tested (1000 nM and 300 nM). The procedure:
Compounds were tested for DYRK1A binding activity by a commercial kinase profiling services, Life Technologies which uses the FRET-based LanthaScreen® Eu Kinase Binding Assay. Compounds were screened for DYRK1A activity at concentrations of 1000 nM and 300 nM in duplicates. The IC50 was determined by 10 point LanthaScreen® Eu Kinase Binding Assay in duplicates.
Background: In TR-FRET formats the signal depends on donor and acceptor labels being close together.

Assay [2] has as its system human β-cells. Put plainly: Human β-cell proliferation assay (Ki67-insulin co-immunolabeling, dispersed human islets). The assay is classed as cell-based. As to conditions: for human β-cell proliferation at screening concentration: 10 μM, Ki-67-insulin co-immunolabeling after 4 days, n = 3. The procedure:
Human pancreatic islets were obtained from the NIH/NIDDK-supported Integrated Islet Distribution Program (IIDP) Duarte, CA, USA (https://iidp.coh.org) and studied using protocols that have been published in detail. Briefly, islets were first dispersed with Accutase (Sigma, St. Louis, MO, USA) onto coverslips, and treated with vehicle (0.1% DMSO) or with harmine-related compounds in RPMI1640 complete medium for 96 h. Then the cells were then, fixed with formaldehyde and immunolabeled for insulin and Ki67 as described below. Total insulin-positive cells and cells double positive Ki67 and insulin positive cells were imaged and counted. Islets from 3–5 different adult donors were tested as described in Figure 4. At least 1000 β-cells were counted for human islet donor.

[3] abbreviates: 1-2b at 30 μM vs harmine at 10 μM.
[4] abbreviates: compound at 1000 nM, duplicates.

A word on the IC50: it is the midpoint of a concentration-inhibition curve. Read a high IC50 as weaker potency. The term inhibition denotes the change of the read-out against control, counted positive when it falls. Molecule `COC(=O)COc1ccc2c(c1)[nH]c1c(C)nccc12` [1-2a, 2-(7-Oxy-1-methyl-9-H-b-carbolin)acetic acid methyl ester] came in with an IC50 in assay [1] (duplicates) of 194 ± 11.7 nM. In addition, in assay [1], the inhibition at 0.3 µM turned out to be 58% and the inhibition at 1 µM turned out to be 85%.

Regarding `COC(=O)CCOc1ccc2c(c1)[nH]c1c(C)nccc12` [1-2b, 3-(7-Oxy-1-methyl-9-H-b-carbolin)propionic acid methyl ester], in assay [1] (duplicates), the IC50 was 89 nM and 89.7 nM. Moreover, in assay [1], the “fold less potent DYRK1A inhibition as compared to harmine” value was 4 fold and ~ 3 fold. In addition, in assay [2], the “human β-cell proliferation at screening concentration” value was “exhibit human β-cell proliferation”. Moreover, in assay [2] (setting [3]), the “human β-cell proliferation relative to harmine (in words)” value is “half that of harmine” and the “maximal human β-cell proliferation as % that of harmine” value was found to be 66%. Moreover, in assay [2] (dose-response up to 30 μM, n = 3 human islet donors for each dose), the “human β-cell proliferation dose-response” value was “induced proliferation in a dose-dependent manner”.

On to `COC(=O)CCCOc1ccc2c(c1)[nH]c1c(C)nccc12` [1-2c, 4-(7-Oxy-1-methyl-9-H-b-carbolin)butnoic acid methyl ester], for which, in assay [1] (compound at 300 nM, duplicates), the inhibition at 0.3 µM came to 47%. The inhibition at 1 µM in assay [1] (setting [4]) came to 78%.

`COC(=O)CCCCOc1ccc2c(c1)[nH]c1c(C)nccc12` [1-2d, 5-(7-Oxy-1-methyl-9-H-b-carbolin)pentanoic acid methyl ester]: the inhibition at 0.3 µM in assay [1] (compound at 300 nM, duplicates) was found to be 35%. The inhibition at 1 µM in assay [1] (setting [4]) turned out to be 67%.

As to `COC(=O)CCCCCOc1ccc2c(c1)[nH]c1c(C)nccc12` [1-2e, 6-(7-Oxy-1-methyl-9-H-b-carbolin)hexanoic acid methyl ester], the IC50 in assay [1] (duplicates) is 134 ± 4.55 nM. In assay [1], the inhibition at 0.3 µM was 56% and the inhibition at 1 µM was 81%.

For the molecule `Cc1nccc2c1[nH]c1cc(OCCNC(=O)OC(C)(C)C)ccc12` [1-2k, 2-(7-Oxy-1-methyl-9-H-b-carbolin)ethyl tert-butyl carbamate], in assay [1] (compound at 300 nM, duplicates), the inhibition at 0.3 µM turned out to be 35%. In addition, in assay [1] (setting [4]), the inhibition at 1 µM came to 61%.

For the molecule `Cc1nccc2c1[nH]c1cc(OCCCNC(=O)OC(C)(C)C)ccc12` [1-2l, 3-(7-Oxy-1-methyl-9-H-b-carbolin)propyl tert-butyl carbamate], in assay [1] (compound at 300 nM, duplicates), the inhibition at 0.3 µM was 24%. The inhibition at 1 µM in assay [1] (setting [4]) was 50%.

As to `Cc1nccc2c1[nH]c1cc(OCCCCNC(=O)OC(C)(C)C)ccc12` [1-2m, 4-(7-Oxy-1-methyl-9-H-b-carbolin)butyl tert-butyl carbamate], the inhibition at 0.3 µM in assay [1] (compound at 300 nM, duplicates) was determined as 31%. For the same molecule, in assay [1] (setting [4]), the inhibition at 1 µM amounted to 58%.

As to `Cc1nccc2c1[nH]c1cc(OCCOCCNC(=O)OC(C)(C)C)ccc12` [1-2n, 2-((7-Oxy-1-methyl-9-H-b-carbolin)ethoxy)ethyl tert-butyl carbamate], in assay [1] (compound at 300 nM, duplicates), the inhibition at 0.3 µM turned out to be 27%. Moreover, in assay [1] (setting [4]), the inhibition at 1 µM is 48%.

Regarding `COCCOc1ccc2c(c1)[nH]c1c(C)nccc12` [1-2o, 2-(7-oxy-1-methyl-9-H-b-carbolin)methoxyethyl], in assay [1], the “DYRK1A inhibition (result in words)” value is given as “not favorable for the DYRK1A inhibition”, the inhibition at 0.3 µM came to 23% and the inhibition at 1 µM was found to be 48%.

For `CCOCCOc1ccc2c(c1)[nH]c1c(C)nccc12` [1-2p, 3-(7-Oxy-1-methyl-9-H-b-carbolin)ethoxyethyl], the inhibition at 0.3 µM in assay [1] (compound at 300 nM, duplicates) amounted to 19%. The inhibition at 1 µM in assay [1] (setting [4]) was 37%. For the same molecule, in assay [1], the “DYRK1A inhibition (result in words)” value was “not favorable for the DYRK1A inhibition”.

Take `Cc1nccc2c1[nH]c1cc(OCC(N)=O)ccc12` [1-3a, 2-(7-Oxy-1-methyl-9-H-b-carbolin)acetamide]: in assay [1] (compound at 300 nM, duplicates), the inhibition at 0.3 µM is 10%. Also, the inhibition at 1 µM in assay [1] (setting [4]) worked out at 30%.

For `Cc1nccc2c1[nH]c1cc(OCCC(N)=O)ccc12` [1-3b, 3-(7-Oxy-1-methyl-9-H-b-carbolin)propionamide], in assay [1] (duplicates), the IC50 came to 91 nM. The “fold less potent DYRK1A inhibition as compared to harmine” value in assay [1] is reported as ~ 3 fold. Besides, the “human β-cell proliferation at screening concentration” value in assay [2] is given as “exhibit human β-cell proliferation”.

For `Cc1nccc2c1[nH]c1cc(OCCCC(N)=O)ccc12` [1-3c, 4-(7-Oxy-1-methyl-9-H-b-carbolin)butanamide], the inhibition at 0.3 µM in assay [1] (compound at 300 nM, duplicates) was determined as 32%. Moreover, the inhibition at 1 µM in assay [1] (setting [4]) amounted to 58%.

With `Cc1nccc2c1[nH]c1cc(OCCCCC(N)=O)ccc12` [1-3d, 5-(7-Oxy-1-methyl-9-H-b-carbolin)pentanamide], the inhibition at 0.3 µM in assay [1] (compound at 300 nM, duplicates) worked out at 67%. The inhibition at 1 µM in assay [1] (setting [4]) worked out at 88%.

Turning to `Cc1nccc2c1[nH]c1cc(OCCCCCC(N)=O)ccc12` [1-3e, 6-(7-Oxy-1-methyl-9-H-b-carbolin)hexanamide], in assay [1] (compound at 300 nM, duplicates), the inhibition at 0.3 µM is 39%. Besides, the inhibition at 1 µM in assay [1] (setting [4]) came to 67%.

`Cc1nccc2c1[nH]c1cc(OCC(=O)O)ccc12` [1-4a, 2-(7-Oxy-1-methyl-9-H-b-carbolin)acetic acid]: in assay [1], the inhibition at 0.3 µM worked out at 3% and the inhibition at 1 µM came to 6%.

Consider `Cc1nccc2c1[nH]c1cc(OCCC(=O)O)ccc12` [1-4b, 3-(7-Oxy-1-methyl-9-H-b-carbolin)propionic acid], for which the IC50 in assay [1] (duplicates) is 1810 ± 101 nM.

Consider `Cc1nccc2c1[nH]c1cc(OCCCC(=O)O)ccc12` [1-4c, 4-(7-Oxy-1-methyl-9-H-b-carbolin)butnoic acid], for which the inhibition at 0.3 µM in assay [1] (compound at 300 nM, duplicates) was found to be 6%. Moreover, the inhibition at 1 µM in assay [1] (setting [4]) was found to be 19%.

As for `Cc1nccc2c1[nH]c1cc(OCCCCC(=O)O)ccc12` [1-4d, 5-(7-Oxy-1-methyl-9-H-b-carbolin)pentanoic acid], the inhibition at 0.3 µM in assay [1] (compound at 300 nM, duplicates) came to 20%. Besides, the inhibition at 1 µM in assay [1] (setting [4]) amounted to 44%.

With `Cc1nccc2c1[nH]c1cc(OCCCCCC(=O)O)ccc12` [1-4e, 6-(7-Oxy-1-methyl-9-H-b-carbolin)hexanoic acid], the inhibition at 0.3 µM in assay [1] (compound at 300 nM, duplicates) worked out at 43%. Besides, the inhibition at 1 µM in assay [1] (setting [4]) came out at 74%.

Regarding `Cc1nccc2c1[nH]c1cc(OCCN)ccc12` [1-5a, 2-(7-Oxy-1-methyl-9-H-b-carbolin)ethylamine hydrochloric acid], the inhibition at 0.3 µM in assay [1] (compound at 300 nM, duplicates) is 12%. Also, the inhibition at 1 µM in assay [1] (setting [4]) was 25%.

As for `Cc1nccc2c1[nH]c1cc(OCCCN)ccc12` [1-5b, 3-(7-Oxy-1-methyl-9-H-b-carbolin)propylamine hydrochloric acid], in assay [1], the inhibition at 0.3 µM was determined as 8% and the inhibition at 1 µM worked out at 28%.

`Cc1nccc2c1[nH]c1cc(OCCCCN)ccc12` [1-5c, 4-(7-Oxy-1-methyl-9-H-b-carbolin)butylamine hydrochloric acid]: in assay [1] (compound at 300 nM, duplicates), the inhibition at 0.3 µM was found to be 15%. Moreover, in assay [1] (setting [4]), the inhibition at 1 µM was 42%.

As to `Cc1nccc2c1[nH]c1cc(OCCOCCN)ccc12` [1-5d, 2-((7-Oxy-1-methyl-9-H-b-carbolin)ethoxy)ethylamine hydrochloric acid], the inhibition at 0.3 µM in assay [1] (compound at 300 nM, duplicates) amounted to 15%. The inhibition at 1 µM in assay [1] (setting [4]) is 32%.

Take `CC(=O)NCCOc1ccc2c(c1)[nH]c1c(C)nccc12` [1-6a, 2-(7-Oxy-1-methyl-9-H-b-carbolin)-2-acetyl-ethylamine]: the inhibition at 0.3 µM in assay [1] (compound at 300 nM, duplicates) worked out at 24%. Moreover, in assay [1] (setting [4]), the inhibition at 1 µM came to 49%.

On to `CC(=O)NCCCOc1ccc2c(c1)[nH]c1c(C)nccc12` [1-6b, 3-(7-Oxy-1-methyl-9-H-b-carbolin) -2-acetyl-propylamine], for which the inhibition at 0.3 µM in assay [1] (compound at 300 nM, duplicates) turned out to be 22%. In addition, in assay [1] (setting [4]), the inhibition at 1 µM was determined as 49%.

Take `CC(=O)NCCCCOc1ccc2c(c1)[nH]c1c(C)nccc12` [1-6c, 4-(7-Oxy-1-methyl-9-H-b-carbolin) -2-acetyl-butylamine]: the inhibition at 0.3 µM in assay [1] (compound at 300 nM, duplicates) turned out to be 45%. The inhibition at 1 µM in assay [1] (setting [4]) was 69%.

In the case of `CC(=O)NCCOCCOc1ccc2c(c1)[nH]c1c(C)nccc12` [1-6d, 2-((7-Oxy-1-methyl-9-H-b-carbolin)ethoxy)-2-acetyl-ethylamine], in assay [1] (compound at 300 nM, duplicates), the inhibition at 0.3 µM came to 17%. The inhibition at 1 µM in assay [1] (setting [4]) stood at 41%.

As to `Cc1nccc2c1[nH]c1cc(N)ccc12` [1-9, 7-Amino-1-methyl-9H-b-carboline], in assay [1], the “DYRK1A inhibition (result in words)” value was “completely lost its DYRK1A inhibitory activity”, the inhibition at 0.3 µM stood at 8% and the inhibition at 1 µM worked out at 21%.

With `Cc1nccc2c1[nH]c1cc(NC(=O)c3ccccc3)ccc12` [1-11, 7-Benzamide-1-methyl-9H-b-carboline], the IC50 in assay [1] (duplicates) turned out to be 389 ± 32.6 nM. The inhibition at 0.3 µM in assay [1] (compound at 300 nM, duplicates) was determined as 48%. In assay [1] (setting [4]), the inhibition at 1 µM worked out at 77%. Besides, in assay [1], the “DYRK1A inhibition (result in words)” value is “partially recovered”.

As to `Cc1nccc2c1[nH]c1cc(OC(=O)NC(C)C)ccc12` [1-12, 1-Methyl-9H-pyrido[3,4-b]indol-7-yl isopropylcarbamate], in assay [1], the “DYRK1A inhibition (result in words)” value was “moderately active”, the inhibition at 0.3 µM was 42% and the inhibition at 1 µM worked out at 69%.
